Results on eight molecules are retold here after ChEMBL document CHEMBL1201862, “PubChem BioAssay data set” (2004).

Test systems include OVCAR-8; NCI-H460; T47D; COLO 205; SW-620; SF-268; IGROV-1; UACC-257; SNB-75; TK-10; ACHN; U-251; OVCAR-5; KM12; LOX IMVI; HOP-62; CAKI-1; HCT-15; PC-3.
Holding throughout (assay): inhibition of tumour cell growth, NCI panel, 48 h

SMILES strings stand for the structures. Values joined by “and” are separate entries in the source; they are usually repeats but may differ in a detail not shown here. Equal values may be shown once.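 Where inhibition never reached the appropriate level, the endpoint shown equals the highest concentration tested. Otherwise, values were interpolated linearly from a five-concentration, 48-hour dose response in 96-well plates. The concentration for 50% growth inhibition is given as GI50.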 Active and inactive are the calls of the source. Rule as the data show it: active = GI50 up to about 1.1 µM and inactive = higher.

For `Cc1cc(-c2cc(C)c(O)c(C(C)(C)C)c2)cc(C(C)(C)C)c1O`, the GI50 with OVCAR-8 is 15.4 µM (inactive) and 13.4 µM (inactive); in the experiment on NCI-H460, 6.68 µM (inactive) and 5.46 µM (inactive); in the experiment with T47D, 4.53 µM (inactive) and 7 µM (inactive); in the experiment with COLO 205, 11.1 µM (inactive) and 13.6 µM (inactive); with SW-620 it was 16.4 µM (inactive) and 11 µM (inactive); with SF-268, 13.9 µM (inactive) and 11.7 µM (inactive). Moreover, the GI50 in the experiment with IGROV-1 is 20.8 µM (inactive) and 12 µM (inactive); with UACC-257, 11.8 µM (inactive); with SNB-75, 14 µM (inactive) and 12.6 µM (inactive); in the experiment with TK-10, 11.2 µM (inactive) and 12.1 µM (inactive); with ACHN, 10.6 µM (inactive) and 15.7 µM (inactive); in the experiment on U-251, 13.6 µM (inactive) and 10.6 µM (inactive). Further, the GI50 in the experiment on OVCAR-5 was 14.5 µM (inactive) and 11.9 µM (inactive); with KM12 it was 6.07 µM (inactive) and 9.06 µM (inactive); in the experiment on LOX IMVI it was 10.1 µM (inactive) and 11.5 µM (inactive); in the experiment with HOP-62, 17.8 µM (inactive) and 17.3 µM (inactive); with CAKI-1 it was 14.6 µM (inactive) and 9.66 µM (inactive).
On to `Oc1ccc(C[C@@H]2CN[C@H](Cc3ccc(O)c(Br)c3)CN2)cc1`, for which the GI50 is more than 100 µM in the experiment on HCT-15; > 100 µM (inactive) with OVCAR-8; > 100 µM (inactive) with T47D; > 100 µM (inactive) in the experiment with COLO 205; > 100 µM (inactive) in the experiment with SW-620; > 100 µM (inactive) in the experiment on SF-268. In addition, the GI50 in the experiment with IGROV-1, in the experiment on PC-3, in the experiment with UACC-257, in the experiment on SNB-75, in the experiment on TK-10 and in the experiment on ACHN was > 100 µM (inactive) throughout. The GI50 with U-251, with OVCAR-5, in the experiment with KM12, in the experiment on HOP-62 and in the experiment with CAKI-1 was > 100 µM (inactive) each time.
For the molecule `Oc1nc2ccccc2c(O)c1Cc1ccccc1`, the GI50 in the experiment on HCT-15 is more than 100 µM; in the experiment on OVCAR-8, > 100 µM (inactive); with NCI-H460, > 100 µM (inactive); in the experiment with COLO 205 it was > 100 µM (inactive); with SW-620 it was > 100 µM (inactive); with SF-268, > 100 µM (inactive). In addition, the GI50 with IGROV-1, in the experiment with PC-3, with UACC-257, in the experiment with SNB-75, in the experiment with TK-10 and with ACHN was > 100 µM (inactive) in each case. The GI50 with U-251, in the experiment on OVCAR-5, in the experiment with KM12, in the experiment with LOX IMVI, in the experiment with HOP-62 and in the experiment with CAKI-1 was > 100 µM (inactive) each time.
For `CC(C)Oc1ccc(CNC2=NCCO2)c2ccccc12`, the GI50 in the experiment with HCT-15 is 15.6 µM; in the experiment on OVCAR-8 it was 15.2 µM (inactive); in the experiment with NCI-H460, 12.4 µM (inactive); in the experiment with T47D it was 11.9 µM (inactive); in the experiment with COLO 205, 16.4 µM (inactive); in the experiment with SW-620 it was 15.3 µM (inactive). The GI50 with SF-268 is 22.3 µM (inactive); with IGROV-1, 12.6 µM (inactive); with UACC-257 it was 5.25 µM (inactive); in the experiment with SNB-75, 18.2 µM (inactive); in the experiment with TK-10 it was 16.3 µM (inactive); in the experiment on ACHN, 14 µM (inactive). Moreover, the GI50 in the experiment on U-251 is 13.6 µM (inactive); with OVCAR-5, 11.6 µM (inactive); in the experiment with KM12 it was 18.1 µM (inactive); in the experiment on HOP-62 it was 15.6 µM (inactive).
With `CC(=O)Nc1ccc(C(=O)NN2C(=O)CSC2c2ccccc2)cc1` (configuration not stated), the GI50 in the experiment with HCT-15 is more than 100 µM; in the experiment on OVCAR-8 it was > 100 µM (inactive); in the experiment with NCI-H460, > 100 µM (inactive); with T47D it was > 100 µM (inactive); with COLO 205 it was > 100 µM (inactive); with SW-620, > 100 µM (inactive). In addition, the GI50 in the experiment with SF-268 is > 100 µM (inactive); with IGROV-1, > 100 µM (inactive); with UACC-257, > 100 µM (inactive); with SNB-75 it was 90.8 µM (inactive); in the experiment on TK-10, > 100 µM (inactive); with ACHN, > 100 µM (inactive). The GI50 with U-251, in the experiment with OVCAR-5, with KM12 and in the experiment on HOP-62 was > 100 µM (inactive) each time.
In the case of `CSc1nc(NC(C)C)c2c(n1)Sc1nc3ccccc3n1N=C2`, the GI50 in the experiment with HCT-15 is 36.8 µM; with OVCAR-8 it was 4.92 µM (inactive); in the experiment with NCI-H460, 6.34 µM (inactive); with COLO 205 it was 7.69 µM (inactive); in the experiment on SW-620 it was 13.1 µM (inactive); in the experiment on SF-268, 25.7 µM (inactive). The GI50 in the experiment with IGROV-1 is 16.9 µM (inactive); in the experiment with PC-3, 19.5 µM (inactive); in the experiment with UACC-257, 29.1 µM (inactive); in the experiment with TK-10 it was 13.8 µM (inactive); in the experiment on ACHN it was 5.83 µM (inactive); in the experiment with U-251 it was 11.5 µM (inactive). Besides, the GI50 with OVCAR-5 is 31.3 µM (inactive); with KM12, 16.5 µM (inactive); with LOX IMVI it was 10.7 µM (inactive); with HOP-62 it was 5.66 µM (inactive); in the experiment with CAKI-1, 28.7 µM (inactive).
Take `Oc1ccc(Br)cc1/C=N/c1c(NC2CCCCC2)oc2ccc(Br)cc12`: the GI50 was 25.1 µM in the experiment on HCT-15; 37.4 µM (inactive) in the experiment with OVCAR-8; 50.5 µM (inactive) with NCI-H460; 8.34 µM (inactive) in the experiment with T47D; > 10 µM (inactive) in the experiment on COLO 205; 35.3 µM (inactive) in the experiment on SW-620. Besides, the GI50 is 33.2 µM (inactive) with SF-268; 56.4 µM (inactive) in the experiment with IGROV-1; 37.8 µM (inactive) in the experiment with UACC-257; 37.2 µM (inactive) with SNB-75; 40.6 µM (inactive) with TK-10; 35.8 µM (inactive) with ACHN. Further, the GI50 was 34.9 µM (inactive) in the experiment on U-251; 63.1 µM (inactive) in the experiment with OVCAR-5; 21 µM (inactive) in the experiment on KM12; 18.3 µM (inactive) in the experiment on LOX IMVI; 68.4 µM (inactive) in the experiment on HOP-62; 36.8 µM (inactive) with CAKI-1.
For the molecule `CC1=C(Cl)C[C@@H](/C(C)=C\Cl)O[C@@]1(O)C(Br)Br`, the GI50 in the experiment on HCT-15 was 16.8 µM; with OVCAR-8, 32.1 µM (inactive); in the experiment with NCI-H460, 41.1 µM (inactive); in the experiment with COLO 205 it was 29.5 µM (inactive); with SW-620, 37.3 µM (inactive); in the experiment with SF-268 it was 32.7 µM (inactive). Moreover, the GI50 in the experiment on IGROV-1 was 34.3 µM (inactive); in the experiment with PC-3 it was 60.5 µM (inactive); in the experiment on UACC-257, 35.3 µM (inactive); in the experiment on SNB-75, 55.6 µM (inactive); in the experiment on TK-10, 29 µM (inactive); in the experiment with ACHN it was 30.5 µM (inactive). Moreover, the GI50 was 32.8 µM (inactive) in the experiment on U-251; 19.2 µM (inactive) in the experiment on OVCAR-5; 54.1 µM (inactive) in the experiment with KM12; 31.7 µM (inactive) in the experiment with LOX IMVI; > 100 µM (inactive) in the experiment with HOP-62; 18.5 µM (inactive) in the experiment on CAKI-1.
